Values belong to the compound of their own block, whether it stands above or below them. Calls of active or inactive are those of the source. No cut-off for these calls is given here.
Experiments:
RS4-11 = assay: Antiproliferative activity against human RS4-11 cells assessed as inhibition of cell growth; format: functional, cell-based
MV4-11 = assay: Antiproliferative activity against human MV4-11 cells assessed as inhibition of cell growth; format: functional, cell-based
KARPAS-422 [1] = assay: Antitumor activity against human KARPAS-422 cells xenografted in FOX CHASE SCID C.B.17/Icr-scid/scid Jc1 mouse assessed as inhibition of tumor growth administered orally BID for 16 days; format: functional; conditions: dose lower 40.0 mg/kg, dose upper […], route po, time 16.0 day
KARPAS-422 [2] = assay: Antitumor activity against human KARPAS-422 cells xenografted in FOX CHASE SCID C.B.17/Icr-scid/scid Jc1 mouse assessed as inhibition of tumor growth at 160 mg/kg, po BID for 16 days; format: functional, organism-based; conditions: time 16.0 day
Mus musculus = assay: In vivo inhibition of EZH1/2 in FOX CHASE SCID C.B.17/Icr-scid/scid Jc1 mouse xenografted with human KARPAS-422 cells assessed as decrease in H3K27me3 level in tumor at 40 to 160 mg/kg, po BID for 16 days and measured 1 day after cessation of drug dosing; format: functional, organism-based; conditions: dose lower 40.0 mg/kg, dose upper […], time 16.0 day
[3] = Cmax in BALB/c mouse at 40 mg/kg administered as single dose; format: ADME, organism-based; conditions: in vivo, route po
[4] = AUC (0 to 24 hrs) in BALB/c mouse at 40 mg/kg administered as single dose; format: ADME, organism-based; conditions: in vivo, route po
G-401 = assay: Antitumor activity against human G-401 cells xenografted in female CAnN.Cg-Foxn1nu/CrlCrljFoxn1nu/Foxn1nu mouse assessed as suppression of tumor growth at 50 mg/kg, po qd for 12 days; format: functional, organism-based; conditions: time 12.0 day
NCI-N87 [5] = assay: Antitumor activity against human NCI-N87 cells xenografted in female CAnN.Cg-Foxn1nu/CrlCrljFoxn1nu/Foxn1nu mouse assessed as tumor regression at 50 mg/kg, po qd for 28 days; format: functional, organism-based; conditions: time 28.0 day
NCI-N87 [6] = assay: Antitumor activity against human NCI-N87 cells xenografted in female CAnN.Cg-Foxn1nu/CrlCrljFoxn1nu/Foxn1nu mouse assessed as tumor regression at 50 mg/kg, po qd for 28 days and measured for 40 days after drug dosing cessation; format: functional, organism-based; conditions: time 28.0 day

EC50 (RS4-11): 1960 nM
EC50 (MV4-11): 525 nM
SMILES: CCCc1cc(C)[nH]c(=O)c1CNC(=O)c1cc(-c2ccc(N3CCN(C(C)C)CC3)nc2)cc2c1cnn2C(C)C

Cmax [3]: 6 µM
AUC(0-t) [4]: 45 µM·h
SMILES: CCN1CCN(c2ccc(-c3cc(C(=O)NCc4c(C)cc(C)[nH]c4=O)c(C)c4c3O[C@](C)(CN3CCOCC3)O4)cn2)CC1
Activity (KARPAS-422 [1]): Dose-Dependent Effect
Activity (KARPAS-422 [2]): Active
inhibition (Mus musculus): Active

SMILES: Cc1cc(C)c(CNC(=O)c2cc(Br)c3c(c2C)OC(C)(C2CCC(N(C)C)CC2)O3)c(=O)[nH]1 (stereo not given)
Activity (G-401): Active
Activity (NCI-N87 [5]): inactive
Activity (NCI-N87 [6]): Active

Reference: ChEMBL document CHEMBL5647694, “Novel orally bioavailable EZH1/2 dual inhibitors with greater antitumor efficacy than an EZH2 selective inhibitor” (Cancer Sci, 2017)
